According to PubChem BioAssay (NCI):
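Assay format: 96-well plates, 48-hour exposure. GI50: concentration for 50% inhibition of growth. TGI: total growth inhibition.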

Tests used:
Test in all cases: DTP human tumour cell line panel, 48 h
[1] = test system: 786-0 renal
[2] = test system: A549 NSCLC
[3] = test system: ACHN renal
[4] = test system: CAKI-1 renal
[5] = test system: COLO 205 colon
[6] = test system: DLD-1 colon
[7] = test system: DMS 114 small cell lung
[8] = test system: DMS 273 small cell lung
[9] = test system: EKVX NSCLC
[10] = test system: HCC-2998 colon
[11] = test system: HL-60(TB) leukemia
[12] = test system: HOP-62 NSCLC
[13] = test system: HT29 colon
[14] = test system: KM12 colon
[15] = test system: KM20L2 colon
[16] = test system: LOX IMVI melanoma
[17] = test system: LXFL 529 NSCLC
[18] = test system: M14 melanoma
[19] = test system: M19-MEL melanoma
[20] = test system: MALME-3M melanoma
[21] = test system: NCI-H226 lung
[22] = test system: NCI-H23 lung
[23] = test system: NCI-H460 lung
[24] = test system: NCI-H522 lung
[25] = test system: OVCAR-4 ovarian
[26] = test system: OVCAR-5 ovarian
[27] = test system: OVCAR-8 ovarian
[28] = test system: RXF 393 renal
[29] = test system: SF-268 CNS
[30] = test system: SF-295 CNS
[31] = test system: SF-539 CNS
[32] = test system: SK-MEL-2 melanoma
[33] = test system: SK-MEL-28 melanoma
[34] = test system: SN12C renal
[35] = test system: SNB-75 CNS
[36] = test system: SNB-78 CNS
[37] = test system: SW-620 colon
[38] = test system: TK-10 renal
[39] = test system: U251 CNS
[40] = test system: UACC-257 melanoma
[41] = test system: UO-31 renal
[42] = test system: XF 498 CNS
[43] = test system: A498 renal
[44] = test system: CCRF-CEM leukemia
[45] = test system: HOP-92 NSCLC
[46] = test system: IGROV1 ovarian
[47] = test system: MOLT-4 leukemia
[48] = test system: SK-OV-3 ovarian
[49] = test system: SNB-19 CNS
[50] = test system: SR leukemia
[51] = test system: UACC-62 melanoma
[52] = test system: HCT-116 colon
[53] = test system: HCT-15 colon
[54] = test system: HOP-18 NSCLC
[55] = test system: K-562 leukemia
[56] = test system: OVCAR-3 ovarian
[57] = test system: RPMI-8226 leukemia
[58] = test system: SK-MEL-5 melanoma

## CC1=C(O)/C(=C/C(C)CCC/C(C)=C/C=C/C(C)CCCc2ccoc2)OC1=O (stereo unspecified)
[1]
  TGI: 84.9 µM
[2]
  TGI: 73.6 µM
[3]
  TGI: 50.9 µM
[4]
  TGI: > 100 µM
[5]
  TGI: > 100 µM
[6]
  TGI: > 100 µM
[7]
  TGI: > 100 µM
[8]
  TGI: > 100 µM
[9]
  TGI: 67.1 µM
[10]
  TGI: 63 µM
[11]
  TGI: 63.8 µM
[12]
  TGI: 59.6 µM
[13]
  TGI: > 100 µM
[14]
  TGI: > 100 µM
[15]
  TGI: > 100 µM
[16]
  TGI: > 100 µM
[17]
  TGI: > 100 µM
[18]
  TGI: > 100 µM
[19]
  TGI: > 100 µM
[20]
  TGI: 49.4 µM
[21]
  TGI: 68.8 µM
[22]
  TGI: 59.3 µM
[23]
  TGI: > 100 µM
[24]
  TGI: > 100 µM
[25]
  TGI: 85.3 µM
[26]
  TGI: 69.3 µM
[27]
  TGI: > 100 µM
[28]
  TGI: > 100 µM
[29]
  TGI: 97.9 µM
[30]
  TGI: 81 µM
[31]
  TGI: > 100 µM
[32]
  TGI: 57.9 µM
[33]
  TGI: > 100 µM
[34]
  TGI: > 100 µM
[35]
  TGI: > 100 µM
[36]
  TGI: > 100 µM
[37]
  TGI: > 100 µM
[38]
  TGI: 78.6 µM
[39]
  TGI: > 100 µM
[40]
  TGI: 66.3 µM
[41]
  TGI: > 100 µM
[42]
  TGI: 34.6 µM

## CC1(C(=O)Nc2ccc3ccccc3c2)CC2(C)CC(C)(C1)C(O)NC2=O (stereo unspecified)
[43]
  TGI: > 100 µM
[2]
  TGI: > 100 µM
[3]
  TGI: > 100 µM
[44]
  TGI: > 100 µM
[8]
  TGI: > 100 µM
[9]
  TGI: > 100 µM
[11]
  TGI: > 100 µM
[12]
  TGI: > 100 µM
[45]
  TGI: > 100 µM
[13]
  TGI: > 100 µM
[46]
  TGI: > 100 µM
[14]
  TGI: > 100 µM
[18]
  TGI: > 100 µM
[19]
  TGI: > 100 µM
[47]
  TGI: > 100 µM
[22]
  TGI: > 100 µM
[23]
  TGI: > 100 µM
[24]
  TGI: > 100 µM
[26]
  TGI: > 100 µM
[27]
  TGI: > 100 µM
[28]
  TGI: > 100 µM
[29]
  TGI: > 100 µM
[30]
  TGI: > 100 µM
[33]
  TGI: > 100 µM
[48]
  TGI: > 100 µM
[49]
  TGI: > 100 µM
[36]
  TGI: > 100 µM
[50]
  TGI: > 100 µM
[38]
  TGI: > 100 µM
[39]
  TGI: > 100 µM
[40]
  TGI: > 100 µM
[51]
  TGI: > 100 µM
[41]
  TGI: > 100 µM

## CC(=O)[CH-]C(=O)c1ccccc1.CC(=O)[CH-]C(=O)c1ccccc1.Cc1cc([O-])ccc1Cl.Cc1cc([O-])ccc1Cl.[Ti+4]
[1]
  GI50: 27.7 µM
  TGI: > 100 µM
[43]
  GI50: 17.2 µM
  TGI: 42.8 µM
[2]
  GI50: 37.6 µM
  TGI: > 100 µM
[3]
  GI50: 30.1 µM
  TGI: > 100 µM
[4]
  GI50: 19.5 µM
  TGI: 60.1 µM
[44]
  GI50: 8.45 µM
  TGI: 42.3 µM
[5]
  GI50: 19.6 µM
  TGI: 38.1 µM
[6]
  GI50: 36.9 µM
  TGI: > 100 µM
[9]
  GI50: 18 µM
  TGI: 47.3 µM
[10]
  GI50: 5.92 µM
  TGI: 28.1 µM
[52]
  GI50: 35 µM
  TGI: > 100 µM
[53]
  GI50: 25.6 µM
  TGI: > 100 µM
[11]
  GI50: 13.7 µM
  TGI: 44.2 µM
[54]
  GI50: 27.8 µM
  TGI: > 100 µM
[12]
  GI50: 19.5 µM
  TGI: 70.9 µM
[13]
  GI50: 28.9 µM
  TGI: 95.5 µM
[46]
  GI50: 26.9 µM
  TGI: > 100 µM
[55]
  GI50: 23.3 µM
  TGI: > 100 µM
[14]
  GI50: 14.1 µM
  TGI: 31.4 µM
[15]
  GI50: 28.3 µM
  TGI: 84.9 µM
[16]
  GI50: 12.6 µM
  TGI: 31.8 µM
[17]
  GI50: 22.1 µM
  TGI: > 100 µM
[18]
  GI50: 23.1 µM
  TGI: 52.5 µM
[20]
  GI50: 20.9 µM
  TGI: 52.8 µM
[47]
  GI50: 15.5 µM
  TGI: 54 µM
[21]
  GI50: 20.2 µM
  TGI: 69.2 µM
[22]
  GI50: 35.6 µM
  TGI: > 100 µM
[23]
  GI50: 22.6 µM
  TGI: > 100 µM
[24]
  GI50: 15.6 µM
  TGI: 34.7 µM
[56]
  GI50: 18.9 µM
  TGI: 60.6 µM
[25]
  GI50: 40.8 µM
  TGI: > 100 µM
[26]
  GI50: 32.7 µM
  TGI: > 100 µM
[27]
  GI50: 16.8 µM
  TGI: 59.1 µM
[57]
  GI50: 19.2 µM
  TGI: 55.3 µM
[28]
  GI50: 26 µM
  TGI: 62.8 µM
[29]
  GI50: 19.5 µM
  TGI: 74.8 µM
[30]
  GI50: 29.8 µM
  TGI: 98.7 µM
[31]
  GI50: 25.9 µM
  TGI: 72.9 µM
[32]
  GI50: 19.3 µM
  TGI: 47 µM
[33]
  GI50: 34.7 µM
  TGI: > 100 µM
[58]
  GI50: 19.3 µM
  TGI: 44.9 µM
[48]
  GI50: 31.3 µM
  TGI: > 100 µM
[34]
  GI50: 32.3 µM
  TGI: > 100 µM
[49]
  GI50: 26.7 µM
  TGI: 90.5 µM
[35]
  GI50: 20.7 µM
  TGI: 69.1 µM
[37]
  GI50: 34 µM
  TGI: > 100 µM
[39]
  GI50: 22.1 µM
  TGI: > 100 µM
[40]
  GI50: 27.1 µM
  TGI: 92.4 µM
[51]
  GI50: 17 µM
  TGI: 44.9 µM
[41]
  GI50: 15.5 µM
  TGI: 47.4 µM

## COc1ccc(NC(=O)C(C)Oc2ccc(OCC3CCCCC3)cc2)cc1 (stereo unspecified)
[1]
  TGI: > 100 µM
[43]
  TGI: > 100 µM
[2]
  TGI: > 100 µM
[3]
  TGI: > 100 µM
[44]
  TGI: > 100 µM
[6]
  TGI: > 100 µM
[7]
  TGI: > 100 µM
[8]
  TGI: > 100 µM
[10]
  TGI: > 100 µM
[52]
  TGI: > 100 µM
[53]
  TGI: > 100 µM
[11]
  TGI: > 100 µM
[13]
  TGI: > 100 µM
[46]
  TGI: > 100 µM
[55]
  TGI: > 100 µM
[14]
  TGI: > 100 µM
[16]
  TGI: > 100 µM
[17]
  TGI: > 100 µM
[18]
  TGI: > 100 µM
[19]
  TGI: > 100 µM
[20]
  TGI: > 100 µM
[47]
  TGI: > 100 µM
[21]
  TGI: > 100 µM
[22]
  TGI: 68.3 µM
[23]
  TGI: > 100 µM
[24]
  TGI: > 100 µM
[56]
  TGI: > 100 µM
[25]
  TGI: > 100 µM
[27]
  TGI: > 100 µM
[28]
  TGI: > 100 µM
[29]
  TGI: > 100 µM
[31]
  TGI: > 100 µM
[32]
  TGI: > 100 µM
[33]
  TGI: > 100 µM
[58]
  TGI: > 100 µM
[48]
  TGI: > 100 µM
[34]
  TGI: > 100 µM
[49]
  TGI: > 100 µM
[35]
  TGI: > 100 µM
[36]
  TGI: > 100 µM
[38]
  TGI: > 100 µM
[39]
  TGI: > 100 µM
[40]
  TGI: > 100 µM
[51]
  TGI: > 100 µM
[41]
  TGI: > 100 µM
[42]
  TGI: > 100 µM
